Columns and labels:
[1] = target: T1, His-tagged recombinant human PPARβ/δ ligand binding domain (Homo sapiens, UniProt Q03181); experiment: CNBr-bead conjugation (pull-down) assay, hPPARβ/δ-LBD; details: CNBr-coupled drug, positive control GW501516, FIG. 2
T1 construct: made in house; host or cells: E. coli (DE3, Rosetta)
T1 sequence (Q03181 211-439 limits assumed): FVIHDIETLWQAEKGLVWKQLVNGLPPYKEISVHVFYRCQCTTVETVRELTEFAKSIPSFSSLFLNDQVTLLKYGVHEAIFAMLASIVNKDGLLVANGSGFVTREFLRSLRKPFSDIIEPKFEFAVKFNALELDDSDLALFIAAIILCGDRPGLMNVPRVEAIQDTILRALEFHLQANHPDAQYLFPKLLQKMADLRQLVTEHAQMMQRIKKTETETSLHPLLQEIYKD
Procedure: A compound of the present invention represented by Chemical Formula 1 was synthesized by DAEJUNG Chemicals & Metals (Gyeonggi-do, Korea) (indicated as ‘D6’ in the drawing). WY14643, GW501516, and rosiglitazone were purchased from Sigma-Aldrich (St. Louis, MO, USA). The compounds were dissolved in dimethyl sulfoxide (DMSO), diluted in a culture solution, and used in the experiment. Cyanogen bromide (CNBr)-activated Sepharose 4B was purchased from Sigma-Aldrich (St. Louis, MO, USA). His-tagged recombinant human PPAR-ligand binding domain (LBD) was expressed in E. coli (DE3, Rosetta) and then purified and used. A His antibody was purchased from Cell Signaling Technology (Danvers, Massachusetts, USA). 3-Isobutyl-1-methylxanthine (IBMX), dexamethasone, bovine pancreatic insulin, and Oil Red O were purchased from Sigma-Aldrich (St. Louis, MO, USA). A PRO-PREP™ Protein Extraction Solution was purchased from iNtRON Biotechnology (iNtRON Biotech., Korea). […]
100 mg of CNBr-activated Sepharose 4B was added to an e-tube, and then the beads were activated by rotating with 1 ml of 1 mM HCl for 10 minutes at room temperature. […] Each e-tube was added with the drug and rotated overnight at 4° C., at which time the concentration was measured to be 20 μM. […] The supernatant was completely removed, and the pellet was detected by Western blotting. […]

PPARα = target: T2, PPARα (Homo sapiens, UniProt Q07869); experiment: Gal4 trans-activated luciferase reporter assay, PPARα-LBD, HEK293; assay type: cell-based; details: HEK293, drug treatment 24 hours, FIG. 1
T2 construct: three types of pcDNA5-GAL4 and pGALRE-luc containing PPARα-LBD, PPARβ/δ-LBD, or PPARγ-LBD; GAL4 (fusion partner from vector pcDNA5-GAL4); expressed in transfected cells; host or cells: HEK293
T2 sequence (Q07869 239-466 limits assumed): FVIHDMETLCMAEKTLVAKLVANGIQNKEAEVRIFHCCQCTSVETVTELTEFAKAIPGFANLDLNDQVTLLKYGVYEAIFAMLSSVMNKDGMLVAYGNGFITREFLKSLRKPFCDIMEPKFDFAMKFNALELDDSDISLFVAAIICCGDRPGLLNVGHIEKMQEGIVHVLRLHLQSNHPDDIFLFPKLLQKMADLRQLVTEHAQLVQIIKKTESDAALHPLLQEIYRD
Procedure: A plasmid was transformed into E. coli (DE3, Rosetta) and transfected into HEK293 cells and used. Referring to known literatures such as Kanno, Y. & Inouye, Y. J Toxicol Sci 35, 515-525 (2010), Zhao, S. et al. J Nat Prod 79, 879-885 (2016), etc., luciferase assay was performed on three types of pcDNA5-GAL4 and pGALRE-luc containing PPARα-LBD, PPARβ/δ-LBD, or PPARγ-LBD. pProEX-PPAR and pET-28a were used for purification of His-tagged recombinant hPPAR-LBD protein.
A HEK293 cell line was cultured in Dulbecco's Modified Eagle Medium (DMEM) containing 10% Fetal Bovine Serum (FBS) and 1% penicillin-streptomycin (P/S). […]
Transfected HEK293 cells were treated with a drug and after 24 hours, the cells were collected, resuspended in a luciferase lysis buffer (Promega, Madison, Wisconsin, USA), and incubated on ice for 10 minutes. […] Next, Firefly Luciferase (Fluc) and Renilla Luciferase (Rluc) activities were measured using the Dual Luciferase Reporter Assay System (Promega, Madison, Wisconsin, USA). […]
To confirm whether a compound represented by Chemical Formula 1 was a PPAR agonist, Gal4 trans-activated luciferase assay was performed. Specifically, HEK293 cells were transfected with the Gal4-luciferase reporter systems of PPARα, PPARβ/δ, and PPARγ, respectively, harvested after drug treatment for 24 hours, and then analyzed by Dual-Luciferase assay. […]

COc1ccc(-c2cc(=O)oc3c(C)c(OC(=O)[C@H](Cc4c[nH]c5ccccc45)NC(=O)OC(C)(C)C)ccc23)cc1 [Chemical Formula 1, [4-(4-methoxyphenyl)-8-methyl-2-oxochromen-7-yl] (2S)-3-(1H-indol-3-yl)-2-[(2-methylpropan-2-yl)oxycarbonylamino]propanoate]
conjugation (binding) to hPPARβ/δ-LBD, Western blotting [1]: as much potently as a PPAR agonist used as a positive control | relative luciferase activity (Fluc to Rluc) for PPARα (PPARα): dose-dependently increased

Reference: patent US20260027083A1, “USE OF PPAR AGONIST FOR IMPROVEMENT OF ENERGY METABOLISM” (NOVMETAPHARMA CO., LTD., priority 2022, published 2026)
